Data reported in paper PMC4603724 (ACS Medicinal Chemistry Letters, 2015).

Target: protein disulfide isomerase (PDI) (Homo sapiens, UniProt P07237)
Assay: 1H-15N HSQC NMR chemical shift perturbation
Format: binding

Sequence of protein disulfide isomerase (PDI) (P07237 18-137): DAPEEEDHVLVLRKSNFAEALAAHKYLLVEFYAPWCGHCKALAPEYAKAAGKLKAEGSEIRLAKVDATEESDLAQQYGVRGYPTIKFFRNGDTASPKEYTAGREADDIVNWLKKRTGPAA

O=C1C=C2C=C[C@@H]3C[C@@]2(O1)[C@H]1CCCCN31 [IBS141, securinine]
Kd: 758 ± 129 µM
